Molecular target: MALT1-GS-Ub (6-His-hMALT-1 residues 339-715 fused to ubiquitin) (Homo sapiens (Human), UniProt Q9UDY8)
Assay: MALT1 Protease Assay 1 (Assay 1), cleavage of fluorogenic tetrapeptide substrate
Assay type: biochemical
Settings: MALT1-GS-Ub 300-600 nM, Ac-LVSR-AMC 100 μM, 30 min preincubation, 60 min read
Procedure: MALT1 Protease Assay 1 (Assay 1)
(§1) MALT1 protease activity was assessed in vitro by measuring the cleavage of a fluorogenic tetrapeptide substrate.
A protein (MALT1-GS-Ub) comprising 6-His-hMALT-1 (residues 339-715), fused to ubiquitin with an 8× GGS linker, was expressed in E. coli, and purified using chitin resin to remove contaminants followed by affinity chromatography purification and size-exclusion chromatography, according to standard protocols.
Briefly, MALT1-GS-Ub (300-600 nM) was incubated with substrate (Ac-LVSR-AMC, 100 μM) in reaction buffer comprising 50 mM HEPES (pH7.0), 25 mM KCl, 0.1% (v/v) CHAPS and 1 mM TCEP.
(§2) Test compounds dissolved in DMSO were dispensed into assay plates (384-well, black, shallow ProxiPlates). 7 μl enzyme solution was added and incubated at room temperature for 30 minutes to allow compound binding to occur. 2 μl substrate solution was then added and the fluorescence (excitation 360 nm, emission 460 nm) read every 15 minutes using a suitable plate reader. Final assay DMSO concentration was 1%. Linearity over 60 minutes was confirmed, and assay signal was calculated by subtracting raw counts at time 0 from those at 60 minutes. % inhibition was calculated for each well, using no enzyme for 100% inhibition controls and no compound for 0% inhibition controls. IC50 values were calculated using GraphPad Prism using a 4-parameter non-linear regression curve fit.

Sequence of MALT1-GS-Ub (6-His-hMALT-1 residues 339-715 fused to ubiquitin) (Q9UDY8 other isoform, or with tags, fused parts or gaps): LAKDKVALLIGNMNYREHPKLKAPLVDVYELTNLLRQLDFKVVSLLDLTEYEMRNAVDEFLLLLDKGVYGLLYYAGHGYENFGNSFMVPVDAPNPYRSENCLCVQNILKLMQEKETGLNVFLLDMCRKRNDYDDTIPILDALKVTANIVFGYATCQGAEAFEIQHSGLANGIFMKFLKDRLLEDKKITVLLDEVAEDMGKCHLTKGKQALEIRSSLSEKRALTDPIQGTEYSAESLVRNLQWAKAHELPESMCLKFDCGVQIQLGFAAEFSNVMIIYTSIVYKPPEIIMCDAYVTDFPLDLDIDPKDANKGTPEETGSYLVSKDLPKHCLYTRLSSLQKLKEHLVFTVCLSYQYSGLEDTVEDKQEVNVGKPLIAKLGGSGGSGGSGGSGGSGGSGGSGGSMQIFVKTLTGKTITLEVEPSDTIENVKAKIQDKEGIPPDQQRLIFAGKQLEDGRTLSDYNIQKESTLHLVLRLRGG

Row | IC50 | Structure (SMILES)
1 | 1.5 µM | O=C(Nc1cnc(-n2nccn2)c(C(F)(F)F)c1)N1CCCc2c(-c3nccs3)cccc21 [Example 10, N-(6-(2H-1,2,3-Triazol-2-yl)-5-(trifluoromethyl)pyridin-3-yl)-5-(thiazol-2-yl)-3,4-dihydroquinoline-1 (2H)-carboxamide]
2 | 1.3 µM | CC1(C)Cc2c(Br)cccc2N(C(=O)Nc2cnc(-n3nccn3)c(Cl)c2)C1 [Example 15, 5-Bromo-N-(5-chloro-6-(2H-1,2,3-triazol-2-yl)pyridin-3-yl)-3,3-dimethyl-3,4-dihydroquinoline-1 (2H)-carboxamide]
3 | 0.73 µM | O=C(Nc1cnc(-n2nccn2)c(Cl)c1)N1CC(C(F)(F)F)Oc2c(Br)cncc21 (stereo not shown) [Example 38, 8-Bromo-N-(5-chloro-6-(2H-1,2,3-triazol-2-yl)pyridin-3-yl)-2-(trifluoromethyl)-2,3-dihydro-4H-pyrido[4,3-b][1,4]oxazine-4-carboxamide]
4 | 4.5 µM | O=C(Nc1cnc(-n2nccn2)c(Cl)c1)N1CCCc2c(Br)cccc21 [Example 1, 5-Bromo-N-(5-chloro-6-(2H-1,2,3-triazol-2-yl)pyridin-3-yl)-3,4-dihydroquinoline-1 (2H)-carboxamide]

Further lines, the molecule ahead of its results:

Row | Structure (SMILES) | IC50
5 | CC1(C)CN(C(=O)Nc2cnc(-n3nccn3)c(Cl)c2)c2cccc(Br)c2O1 [Example 13, 8-Bromo-N-(5-chloro-6-(2H-1,2,3-triazol-2-yl)pyridin-3-yl)-2,2-dimethyl-2,3-dihydro-4H-benzo[b][1,4]oxazine-4-carboxamide] | 1.3 µM
6 | O=C(Nc1cnc(-n2nccn2)c(C(F)(F)F)c1)N1CCCc2c(Br)cccc21 [Example 2, N-(6-(2H-1,2,3-Triazol-2-yl)-5-(trifluoromethyl)pyridin-3-yl)-5-bromo-3,4-dihydroquinoline-1 (2H)-carboxamide] | 3.2 µM

Molecular target: FL hMALT1 enzyme (Homo sapiens (Human), UniProt Q9UDY8)
Sequence (Q9UDY8 whole entry): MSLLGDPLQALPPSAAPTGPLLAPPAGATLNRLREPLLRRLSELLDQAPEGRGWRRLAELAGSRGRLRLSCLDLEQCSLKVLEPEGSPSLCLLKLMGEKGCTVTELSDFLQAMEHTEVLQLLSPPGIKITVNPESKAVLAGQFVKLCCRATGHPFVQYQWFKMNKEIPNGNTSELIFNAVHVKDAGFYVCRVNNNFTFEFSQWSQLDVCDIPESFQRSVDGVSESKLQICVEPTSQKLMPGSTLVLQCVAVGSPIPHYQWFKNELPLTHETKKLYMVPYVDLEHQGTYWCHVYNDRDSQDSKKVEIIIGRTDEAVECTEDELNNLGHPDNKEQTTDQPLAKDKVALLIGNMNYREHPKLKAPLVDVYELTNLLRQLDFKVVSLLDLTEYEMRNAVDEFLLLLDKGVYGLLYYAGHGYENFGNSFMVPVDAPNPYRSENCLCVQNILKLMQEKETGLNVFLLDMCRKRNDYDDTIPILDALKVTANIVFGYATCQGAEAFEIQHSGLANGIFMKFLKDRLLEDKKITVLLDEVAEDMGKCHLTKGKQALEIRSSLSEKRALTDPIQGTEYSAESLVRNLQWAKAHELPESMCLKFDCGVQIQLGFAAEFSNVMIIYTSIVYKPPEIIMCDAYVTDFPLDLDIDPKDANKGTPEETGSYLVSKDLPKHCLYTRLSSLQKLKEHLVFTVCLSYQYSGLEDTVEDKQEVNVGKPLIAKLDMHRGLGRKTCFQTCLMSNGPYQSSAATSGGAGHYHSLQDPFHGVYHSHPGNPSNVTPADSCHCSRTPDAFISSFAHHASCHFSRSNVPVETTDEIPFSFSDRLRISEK
Assay: MALT1 Protease Assay 2 (Assay 2), higher sensitivity, cleavage of fluorogenic tetrapeptide substrate
Assay type: biochemical
Settings: FL hMALT1 1-10 nM, Ac-LVSR-AMC 100 μM, 0.7 M sodium citrate, 30 min preincubation, 60 min read
Procedure: MALT1 Protease Assay 2 (Assay 2)
as §1
For a higher sensitivity assay, commercially available FL hMALT1 enzyme (Abcam, 1-10 nM) was incubated with substrate (Ac-LVSR-AMC, 100 μM) in reaction buffer comprising 50 mM HEPES (pH7.0), 25 mM KCl, 0.1% (v/v) CHAPS, 1 mM TCEP and 0.7 M sodium citrate.
as §2

Row | IC50 | Structure (SMILES)
7 | 1 µM | O=C(Nc1cnc(-n2nccn2)c(C(F)(F)F)c1)N1CCCc2c(-c3nccs3)cccc21 [Example 10, N-(6-(2H-1,2,3-Triazol-2-yl)-5-(trifluoromethyl)pyridin-3-yl)-5-(thiazol-2-yl)-3,4-dihydroquinoline-1 (2H)-carboxamide]
8 | 0.44 µM | CC1(C)Cc2c(Br)cccc2N(C(=O)Nc2cnc(-n3nccn3)c(Cl)c2)C1 [Example 15, 5-Bromo-N-(5-chloro-6-(2H-1,2,3-triazol-2-yl)pyridin-3-yl)-3,3-dimethyl-3,4-dihydroquinoline-1 (2H)-carboxamide]
9 | 0.12 µM | O=C(Nc1cnc(-n2nccn2)c(Cl)c1)N1CC(C(F)(F)F)Oc2c(Br)cncc21 (stereo not shown) [Example 38, 8-Bromo-N-(5-chloro-6-(2H-1,2,3-triazol-2-yl)pyridin-3-yl)-2-(trifluoromethyl)-2,3-dihydro-4H-pyrido[4,3-b][1,4]oxazine-4-carboxamide]
10 | 2.12 µM | Cc1ncc2c(c1C#N)OC(C(F)(F)F)CN2C(=O)Nc1cnc(-n2nccn2)c(C(F)(F)F)c1 (single isomer, unassigned) [Example 64, N-(6-(2H-1,2,3-triazol-2-yl)-5-(trifluoromethyl)pyridin-3-yl)-8-cyano-7-methyl-2-(trifluoromethyl)-2,3-dihydro-4H-pyrido[4,3-b][1,4]oxazine-4-carboxamide]
11 | 7.6 µM | Cc1ncc2c(c1C#N)OC(C(F)(F)F)CN2C(=O)Nc1cnc(-n2nccn2)c(Cl)c1 (single isomer, unassigned) [Example 52, N-(5-Chloro-6-(2H-1,2,3-triazol-2-yl)pyridin-3-yl)-8-cyano-7-methyl-2-(trifluoromethyl)-2,3-dihydro-4H-pyrido[4,3-b][1,4]oxazine-4-carboxamide]
12 | 8.2 µM | N#Cc1cncc2c1OC(C(F)(F)F)CN2C(=O)Nc1cnc(-n2nccn2)c(Cl)c1 (single isomer, unassigned) [Example 54, N-(5-Chloro-6-(2H-1,2,3-triazol-2-yl)pyridin-3-yl)-8-cyano-2-(trifluoromethyl)-2,3-dihydro-4H-pyrido[4,3-b][1,4]oxazine-4-carboxamide]
13 | 3.4 µM | Cc1ncc2c(c1Br)OC(C(F)(F)F)CN2C(=O)Nc1cnc(-n2nccn2)c(Cl)c1 (single isomer, unassigned) [Example 42, 8-Bromo-N-(5-chloro-6-(2H-1,2,3-triazol-2-yl)pyridin-3-yl)-7-methyl-2-(trifluoromethyl)-2,3-dihydro-4H-pyrido[4,3-b][1,4]oxazine-4-carboxamide]
14 | 0.017 µM | Cc1ncc2c(c1C#N)OC(C(F)(F)F)CN2C(=O)Nc1cnc(-n2nccn2)c(C(F)(F)F)c1 (single isomer, unassigned) [Example 65, N-(6-(2H-1,2,3-triazol-2-yl)-5-(trifluoromethyl)pyridin-3-yl)-8-cyano-7-methyl-2-(trifluoromethyl)-2,3-dihydro-4H-pyrido[4,3-b][1,4]oxazine-4-carboxamide]

Second part, the molecule before the results:

Row | Structure (SMILES) | IC50
15 | CC1(C)CN(C(=O)Nc2cnc(-n3nccn3)c(Cl)c2)c2cccc(Br)c2O1 [Example 13, 8-Bromo-N-(5-chloro-6-(2H-1,2,3-triazol-2-yl)pyridin-3-yl)-2,2-dimethyl-2,3-dihydro-4H-benzo[b][1,4]oxazine-4-carboxamide] | 1.3 µM
16 | O=C(Nc1cnc(-n2nccn2)c(Cl)c1)N1CC(C2CC2)Oc2c(Br)cncc21 (single isomer, unassigned) [Example 51, 8-Bromo-N-(5-chloro-6-(2H-1,2,3-triazol-2-yl)pyridin-3-yl)-2-cyclopropyl-2,3-dihydro-4H-pyrido[4,3-b][1,4]oxazine-4-carboxamide] | 0.25 µM
17 | N#CC1Cc2c(Br)cncc2N(C(=O)Nc2cnc(-n3nccn3)c(Cl)c2)C1 (stereo not shown) [Example 58, 5-Bromo-N-(5-chloro-6-(2H-1,2,3-triazol-2-yl)pyridin-3-yl)-3-cyano-3,4-dihydro-1,7-naphthyridine-1 (2H)-carboxamide] | 1.29 µM
18 | Cc1ncc2c(c1C#N)OC(C(F)(F)F)CN2C(=O)Nc1cnc(C(=O)N(C)C2CC2)c(C(F)F)c1 (single isomer, unassigned) [Example 66, 8-Cyano-N-(6-(cyclopropyl(methyl)carbamoyl)-5-(difluoromethyl)pyridin-3-yl)-7-methyl-2-(trifluoromethyl)-2,3-dihydro-4H-pyrido[4,3-b][1,4]oxazine-4-carboxamide] | 9.1 µM
19 | Cc1ncc2c(c1C#N)OC(C(F)(F)F)CN2C(=O)Nc1ccnc(C(F)(F)F)c1 (stereo not shown) [Example 59, 8-Cyano-7-methyl-2-(trifluoromethyl)-N-(2-(trifluoromethyl)pyridin-4-yl)-2,3-dihydro-4H-pyrido[4,3-b][1,4]oxazine-4-carboxamide] | 0.82 µM
20 | CC1CN(C(=O)Nc2cnc(-n3nccn3)c(Cl)c2)c2cncc(Br)c2O1 (single isomer, unassigned) [Example 44, 8-Bromo-N-(5-chloro-6-(2H-1,2,3-triazol-2-yl)pyridin-3-yl)-2-methyl-2,3-dihydro-4H-pyrido[4,3-b][1,4]oxazine-4-carboxamide] | 0.33 µM
21 | CC1CN(C(=O)Nc2cnc(-n3nccn3)c(Cl)c2)c2cncc(Br)c2O1 (single isomer, unassigned) [Example 45, 8-Bromo-N-(5-chloro-6-(2H-1,2,3-triazol-2-yl)pyridin-3-yl)-2-methyl-2,3-dihydro-4H-pyrido[4,3-b][1,4]oxazine-4-carboxamide] | 0.2 µM
22 | Cc1ncc2c(c1C#N)OC(C(F)(F)F)CN2C(=O)Nc1cnc(-n2nccn2)c(C#N)c1 (single isomer, unassigned) [Example 63, 8-Cyano-N-(5-cyano-6-(2H-1,2,3-triazol-2-yl)pyridin-3-yl)-7-methyl-2-(trifluoromethyl)-2,3-dihydro-4H-pyrido[4,3-b][1,4]oxazine-4-carboxamide] | 0.104 µM
23 | Cc1ncc2c(c1C#N)OC(C(F)(F)F)CN2C(=O)Nc1cnc(-n2nccn2)c(C#N)c1 (single isomer, unassigned) [Example 62, 8-Cyano-N-(5-cyano-6-(2H-1,2,3-triazol-2-yl)pyridin-3-yl)-7-methyl-2-(trifluoromethyl)-2,3-dihydro-4H-pyrido[4,3-b][1,4]oxazine-4-carboxamide] | 6.5 µM
24 | Cc1ncc2c(c1C#N)OC(C(F)(F)F)CN2C(=O)Nc1cnc(C(=O)N(C)C2CC2)c(C(F)F)c1 (single isomer, unassigned) [Example 67, 8-Cyano-N-(6-(cyclopropyl(methyl)carbamoyl)-5-(difluoromethyl)pyridin-3-yl)-7-methyl-2-(trifluoromethyl)-2,3-dihydro-4H-pyrido[4,3-b][1,4]oxazine-4-carboxamide] | 0.146 µM
25 | O=C(Nc1cnc(-n2nccn2)c(Cl)c1)N1CC(C2CC2)Oc2c(Br)cncc21 (single isomer, unassigned) [Example 50, 8-Bromo-N-(5-chloro-6-(2H-1,2,3-triazol-2-yl)pyridin-3-yl)-2-cyclopropyl-2,3-dihydro-4H-pyrido[4,3-b][1,4]oxazine-4-carboxamide] | 0.24 µM
26 | COc1cncc2c1OC(C(F)(F)F)CN2C(=O)Nc1cnc(-n2nccn2)c(Cl)c1 (single isomer, unassigned) [Example 56, N-(5-Chloro-6-(2H-1,2,3-triazol-2-yl)pyridin-3-yl)-8-methoxy-2-(trifluoromethyl)-2,3-dihydro-4H-pyrido[4,3-b][1,4]oxazine-4-carboxamide] | 5.1 µM
27 | COc1cncc2c1OC(C(F)(F)F)CN2C(=O)Nc1cnc(-n2nccn2)c(Cl)c1 (single isomer, unassigned) [Example 57, N-(5-Chloro-6-(2H-1,2,3-triazol-2-yl)pyridin-3-yl)-8-methoxy-2-(trifluoromethyl)-2,3-dihydro-4H-pyrido[4,3-b][1,4]oxazine-4-carboxamide] | 0.17 µM
28 | Cc1ncc2c(c1C#N)OC(C(F)(F)F)CN2C(=O)Nc1cnc(OC(F)F)c(Cl)c1 (single isomer, unassigned) [Example 60, N-(5-Chloro-6-(difluoromethoxy)pyridin-3-yl)-8-cyano-7-methyl-2-(trifluoromethyl)-2,3-dihydro-4H-pyrido[4,3-b][1,4]oxazine-4-carboxamide] | 3.82 µM

Reference: patent US20250136577A1, “HETEROCYCLIC DERIVATIVES AS MALT1 INHIBITORS” (C4X Discovery Limited, priority 2022, published 2025)
